Data on 37 compounds can be found in patent US8952034B2, “Fused heterocyclic compounds as ion channel modulators” (Gilead Sciences, Inc., priority 2009, dated 2015).

Molecules are shown by their SMILES.

The target of one assay is wild-type human cardiac sodium channel, hNav1.5 (Homo sapiens, UniProt Q14524). Kind of assay: Late INa screening assay (automated whole cell patch clamp, PatchXpress). Type of assay: cell-based. The settings on record: compound at 1 μM; HEK293 cells expressing hNav1.5; late INa generated with 10 μM Tefluthrin (or 50 nM ATX II); read-out: LateINa_1 uM (percent block of late INa). An outline of the steps: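 Late sodium current through wild-type human hNav1.5 stably expressed in HEK293 cells (no beta subunits) was recorded by automated whole-cell patch clamp on a PatchXpress 7000A at 24-27° C. Late INa was induced with 10 μM Tefluthrin or 50 nM ATX II. Cells were stepped from −120 mV to −20 mV for 250 ms at 0.1 Hz, and percent block was normalized to current in Na-free extracellular solution.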
Chain of wild-type human cardiac sodium channel, hNav1.5 (Q14524 whole entry): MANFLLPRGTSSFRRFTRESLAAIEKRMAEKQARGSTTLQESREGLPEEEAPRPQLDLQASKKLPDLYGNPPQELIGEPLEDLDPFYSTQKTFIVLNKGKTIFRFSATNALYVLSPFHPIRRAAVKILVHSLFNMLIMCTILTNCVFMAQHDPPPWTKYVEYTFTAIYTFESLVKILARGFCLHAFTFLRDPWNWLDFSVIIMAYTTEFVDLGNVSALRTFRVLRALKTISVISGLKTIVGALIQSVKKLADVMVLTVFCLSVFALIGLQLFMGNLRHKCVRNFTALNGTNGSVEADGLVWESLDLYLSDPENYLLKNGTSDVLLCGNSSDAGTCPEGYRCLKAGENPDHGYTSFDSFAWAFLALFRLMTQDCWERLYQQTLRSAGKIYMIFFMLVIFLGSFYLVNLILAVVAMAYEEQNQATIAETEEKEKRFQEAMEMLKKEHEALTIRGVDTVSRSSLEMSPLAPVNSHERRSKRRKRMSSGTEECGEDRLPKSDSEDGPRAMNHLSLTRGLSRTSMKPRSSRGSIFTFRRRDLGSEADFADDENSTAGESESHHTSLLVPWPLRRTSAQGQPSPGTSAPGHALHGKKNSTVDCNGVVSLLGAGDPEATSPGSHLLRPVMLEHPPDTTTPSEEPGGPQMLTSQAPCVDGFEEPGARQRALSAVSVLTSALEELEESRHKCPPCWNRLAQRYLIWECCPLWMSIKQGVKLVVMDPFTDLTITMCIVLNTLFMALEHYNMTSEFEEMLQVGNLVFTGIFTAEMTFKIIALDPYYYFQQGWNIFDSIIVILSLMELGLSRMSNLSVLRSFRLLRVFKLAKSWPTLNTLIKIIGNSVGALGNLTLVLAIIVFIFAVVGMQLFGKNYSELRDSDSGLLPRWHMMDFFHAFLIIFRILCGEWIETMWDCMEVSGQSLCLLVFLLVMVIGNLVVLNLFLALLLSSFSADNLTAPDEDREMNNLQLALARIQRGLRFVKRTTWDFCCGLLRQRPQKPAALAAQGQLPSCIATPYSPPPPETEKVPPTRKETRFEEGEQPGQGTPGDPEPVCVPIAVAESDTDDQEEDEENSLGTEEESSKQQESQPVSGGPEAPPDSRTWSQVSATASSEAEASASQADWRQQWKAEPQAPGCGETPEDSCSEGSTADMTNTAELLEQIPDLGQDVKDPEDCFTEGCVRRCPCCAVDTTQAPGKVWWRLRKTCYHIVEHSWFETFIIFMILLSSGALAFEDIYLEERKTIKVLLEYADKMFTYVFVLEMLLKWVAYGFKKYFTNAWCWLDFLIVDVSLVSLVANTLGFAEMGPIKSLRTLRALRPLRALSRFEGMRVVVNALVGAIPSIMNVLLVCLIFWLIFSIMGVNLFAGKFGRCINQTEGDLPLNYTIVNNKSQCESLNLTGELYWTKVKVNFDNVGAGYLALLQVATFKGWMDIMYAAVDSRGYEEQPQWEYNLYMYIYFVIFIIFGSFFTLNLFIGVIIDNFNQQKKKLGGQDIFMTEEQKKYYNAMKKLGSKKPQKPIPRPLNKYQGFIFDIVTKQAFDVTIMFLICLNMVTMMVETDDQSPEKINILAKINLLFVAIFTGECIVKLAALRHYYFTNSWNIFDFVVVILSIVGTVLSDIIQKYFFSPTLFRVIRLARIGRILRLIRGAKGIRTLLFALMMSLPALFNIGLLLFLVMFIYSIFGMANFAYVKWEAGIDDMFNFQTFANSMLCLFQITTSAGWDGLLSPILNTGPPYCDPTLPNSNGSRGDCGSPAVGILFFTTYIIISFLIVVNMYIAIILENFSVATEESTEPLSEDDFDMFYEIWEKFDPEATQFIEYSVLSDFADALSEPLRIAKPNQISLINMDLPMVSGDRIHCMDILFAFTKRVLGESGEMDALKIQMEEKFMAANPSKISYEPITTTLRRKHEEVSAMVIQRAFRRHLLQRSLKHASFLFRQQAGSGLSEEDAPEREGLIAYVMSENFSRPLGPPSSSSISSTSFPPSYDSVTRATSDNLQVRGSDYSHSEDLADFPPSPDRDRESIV
On the technique in general: In patch-clamp work, channel activity is measured electrically.
Consider `FC(F)(F)Oc1ccc(-c2ccc3nnnn3c2)cc1` [BHN-98, 6-[4-(trifluoromethoxy)phenyl]tetrazolo[1,5-a]pyridine], for which the inhibition at 1 µM amounted to 54.1%.

As for `CNC(=O)c1cccc(-c2nnc3ccc(-c4ccc(OC(F)(F)F)cc4)cn23)c1` [BHN-99, N-methyl-3-{6-[4-(trifluoromethoxy)phenyl][1,2,4]triazolo[4,3-a]pyridin-3-yl}benzamide], the inhibition at 1 µM is 19.6%.

As for `FC(F)(F)c1nnc2ccc(-c3ccc(Oc4cccnc4)cc3)cn12` [BHN-100, 6-[4-(pyridin-3-yloxy)phenyl]-3-(trifluoromethyl)[1,2,4]triazolo[4,3-a]pyridine], the inhibition at 1 µM was found to be 27.6%.

Regarding `CSc1ccc(-c2ccc3cnc(C(F)(F)F)n3c2)cn1` [BHN-101, 6-[6-(methylsulfanyl)pyridin-3-yl]-3-(trifluoromethyl)imidazo[1,5-a]pyridine], the inhibition at 1 µM came out at 32.3%.

Take `FC(F)(F)c1nnc2ccc(-c3ccc(OC4CC4)cc3)cn12` [BHN-102, 6-[4-(cyclopropyloxy)phenyl]-3-(trifluoromethyl)[1,2,4]triazolo[4,3-a]pyridine]: the inhibition at 1 µM was 45.5%.

Regarding `Cc1cc(-c2ccc(OC(F)(F)F)cc2)cn2c(C(F)(F)F)nnc12` [BHN-103, 8-methyl-6-[4-(trifluoromethoxy)phenyl]-3-(trifluoromethyl)[1,2,4]triazolo[4,3-a]pyridine], the inhibition at 1 µM came to 40.7%.

For `COc1cc(C(F)(F)F)ccc1-c1ccc2nnc(C(F)(F)F)n2c1` [BHN-105, 6-[2-methoxy-4-(trifluoromethyl)phenyl]-3-(trifluoromethyl)[1,2,4]triazolo[4,3-a]pyridine], the inhibition at 1 µM is 49.3%.

As to `FC(F)(F)c1nnc2ccc(-c3ccc4ccccc4c3)cn12` [BHN-106, 6-(naphthalen-2-yl)-3-(trifluoromethyl)[1,2,4]triazolo[4,3-a]pyridine], the inhibition at 1 µM is 38.2%.

`COc1cc(-c2ccc3nnc(C(F)(F)F)n3c2)cc(OC)c1OC` [BHN-107, 3-(trifluoromethyl)-6-(3,4,5-trimethoxyphenyl)[1,2,4]triazolo[4,3-a]pyridine]: the inhibition at 1 µM was 16.5%.

With `FC(F)(F)Oc1ccc(-c2ccc3nnc(C(F)(F)F)n3c2)c2cccnc12` [BHN-108, 8-(trifluoromethoxy)-5-[3-(trifluoromethyl)[1,2,4]triazolo[4,3-a]pyridin-6-yl]quinoline], the inhibition at 1 µM worked out at 45.7%.

`Fc1cc(-c2ccc3nnc(C(F)(F)F)n3c2)cc(F)c1Oc1ccccc1` [BHN-109, 6-(3,5-difluoro-4-phenoxyphenyl)-3-(trifluoromethyl)[1,2,4]triazolo[4,3-a]pyridine]: the inhibition at 1 µM worked out at 61.8%.

Take `O=[N+]([O-])c1cc(F)ccc1Oc1ccc(-c2ccc3nnc(C(F)(F)F)n3c2)cc1` [BHN-110, 6-[4-(4-fluoro-2-nitrophenoxy)phenyl]-3-(trifluoromethyl)[1,2,4]triazolo[4,3-a]pyridine]: the inhibition at 1 µM amounted to 18.2%.

As for `OCC(F)(F)c1nnc2ccc(-c3ccc(Oc4ccccc4)cc3)cn12` [BHN-111, 2,2-difluoro-2-[6-(4-phenoxyphenyl)[1,2,4]triazolo[4,3-a]pyridin-3-yl]ethanol], the inhibition at 1 µM was determined as 29%.

As to `Fc1ccccc1Oc1ccc(-c2ccc3nnc(C(F)(F)F)n3c2)cc1` [BHN-112, 6-[4-(2-fluorophenoxy)phenyl]-3-(trifluoromethyl)[1,2,4]triazolo[4,3-a]pyridine], the inhibition at 1 µM worked out at 32.9%.

Regarding `FC(F)(F)c1nnc2ccc(-c3ccc(Oc4ccncc4)cc3)cn12` [BHN-113, 6-[4-(pyridin-4-yloxy)phenyl]-3-(trifluoromethyl)[1,2,4]triazolo[4,3-a]pyridine], the inhibition at 1 µM stood at 20.1%.

Take `FC(F)(F)c1nnc2ccc(-c3ccc(Nc4ccccc4)cc3)cn12` [BHN-114, N-phenyl-4-[3-(trifluoromethyl)[1,2,4]triazolo[4,3-a]pyridin-6-yl]aniline]: the inhibition at 1 µM was determined as 37.4%.

`CC(=O)Nc1cc(OC(F)(F)F)ccc1-c1ccc2nnc(-c3ccc(OC(F)(F)F)cc3)n2c1` [BHN-116, N-[5-(trifluoromethoxy)-2-{3-[4-(trifluoromethoxy)phenyl][1,2,4]triazolo[4,3-a]pyridin-6-yl}phenyl]acetamide]: the inhibition at 1 µM is 16.4%.

For the compound `N#Cc1nc(C(F)(F)F)n2cc(-c3ccc(OC(F)(F)F)cc3)ccc12` [BHN-117, 6-[4-(trifluoromethoxy)phenyl]-3-(trifluoromethyl)imidazo[1,5-a]pyridine-1-carbonitrile], the inhibition at 1 µM is 66.3%.

For `FC(F)(F)Oc1ccc(-c2ccc3nnc(-c4ccc(OC(F)(F)F)cc4)n3n2)cc1` [BHN-118, 3,6-bis[4-(trifluoromethoxy)phenyl][1,2,4]triazolo[4,3-b]pyridazine], the inhibition at 1 µM amounted to 46.3%.

In the case of `FC(F)(F)c1nnc2ccc(-c3ccc(Sc4ccccc4)cc3)cn12` [BHN-119, 6-[4-(phenylsulfanyl)phenyl]-3-(trifluoromethyl)[1,2,4]triazolo[4,3-a]pyridine], the inhibition at 1 µM came out at 70.5%.

Take `FC(F)(F)c1nnc2ccc(-c3cccc4ccccc34)cn12` [BHN-120, 6-(naphthalen-1-yl)-3-(trifluoromethyl)[1,2,4]triazolo[4,3-a]pyridine]: the inhibition at 1 µM stood at 20.4%.

Consider `FC(F)(F)c1ccc(-c2ccc3nnc(C(F)(F)F)n3c2)nn1` [BHN-121, 3-(trifluoromethyl)-6-[6-(trifluoromethyl)pyridazin-3-yl][1,2,4]triazolo[4,3-a]pyridine], for which the inhibition at 1 µM turned out to be 21.9%.

Regarding `FC(F)(F)c1ncc(-c2ccc3nnc(C(F)(F)F)n3c2)cn1` [BHN-122, 3-(trifluoromethyl)-6-[2-(trifluoromethyl)pyrimidin-5-yl][1,2,4]triazolo[4,3-a]pyridine], the inhibition at 1 µM was 31.8%.

For the compound `FC(F)(F)c1nnc2ccc(-c3ccc(NC(c4ccccc4)C(F)(F)F)cc3)cn12` (centres unmarked) [BHN-123, 4-[3-(trifluoromethyl)[1,2,4]triazolo[4,3-a]pyridin-6-yl]-N-(2,2,2-trifluoro-1-phenylethyl)aniline], the inhibition at 1 µM worked out at 23.4%.

Take `FC(F)(F)Oc1ccc(-c2ccc3nnc(C(F)(F)F)n3c2)c(Br)c1` [BHN-124, 6-[2-bromo-4-(trifluoromethoxy)phenyl]-3-(trifluoromethyl)[1,2,4]triazolo[4,3-a]pyridine]: the inhibition at 1 µM was found to be 82%.

Turning to `OCc1nc(C(F)(F)F)n2cc(-c3ccc(OC(F)(F)F)cc3)ccc12` [BHN-125, {6-[4-(trifluoromethoxy)phenyl]-3-(trifluoromethyl)imidazo[1,5-a]pyridin-1-yl}methanol], the inhibition at 1 µM was 33.9%.

`COc1cc(-c2ccc(OC(F)(F)F)cc2)cn2c(C(F)F)nnc12` [BHN-126, 3-(difluoromethyl)-8-methoxy-6-[4-(trifluoromethoxy)phenyl][1,2,4]triazolo[4,3-a]pyridine]: the inhibition at 1 µM was 26.9%.

Regarding `FC(F)(F)Oc1ccc(-c2ccc3nnc(COCc4ccccc4)n3c2)cc1` [BHN-127, 3-[(benzyloxy)methyl]-6-[4-(trifluoromethoxy)phenyl][1,2,4]triazolo[4,3-a]pyridine], the inhibition at 1 µM is 93.2%.

As to `FC(F)(F)Oc1ccc(-c2ccc3nnc(COCC4CC4)n3c2)cc1` [BHN-128, 3-[(cyclopropylmethoxy)methyl]-6-[4-(trifluoromethoxy)phenyl][1,2,4]triazolo[4,3-a]pyridine], the inhibition at 1 µM is 65.6%.

As to `FC(F)(F)COCc1nnc2ccc(-c3ccc(OC(F)(F)F)cc3)cn12` [BHN-129, 3-[(2,2,2-trifluoroethoxy)methyl]-6-[4-(trifluoromethoxy)phenyl][1,2,4]triazolo[4,3-a]pyridine], the inhibition at 1 µM was 48.4%.

With `OCc1nnc2ccc(-c3ccc(OC(F)(F)F)cc3)cn12` [BHN-130, {6-[4-(trifluoromethoxy)phenyl][1,2,4]triazolo[4,3-a]pyridin-3-yl}methanol], the inhibition at 1 µM stood at 21.9%.

For `COc1ncc(-c2cc(OC(F)(F)F)ccc2-c2ccc3nnc(C(F)(F)F)n3c2)cn1` [BHN-131, 6-[2-(2-methoxypyrimidin-5-yl)-4-(trifluoromethoxy)phenyl]-3-(trifluoromethyl)[1,2,4]triazolo[4,3-a]pyridine], the inhibition at 1 µM is 18.5%.

On to `FC(F)(F)Oc1ccc(-c2ccc3nnc(C(F)(F)F)n3c2)c(-c2cccnc2)c1` [BHN-132, 6-[2-(pyridin-3-yl)-4-(trifluoromethoxy)phenyl]-3-(trifluoromethyl)[1,2,4]triazolo[4,3-a]pyridine], for which the inhibition at 1 µM is 29.4%.

Take `Nc1cc(-c2ccc3nnc(C(F)(F)F)n3c2)ccc1OC(F)(F)F` [BHN-134, 2-(trifluoromethoxy)-5-[3-(trifluoromethyl)[1,2,4]triazolo[4,3-a]pyridin-6-yl]aniline]: the inhibition at 1 µM was 27.8%.

In the case of `N#CC1(c2ccc(-c3ccc4nnc(C(F)(F)F)n4c3)cc2)CCCC1` [BHN-135, 1-{4-[3-(trifluoromethyl)[1,2,4]triazolo[4,3-a]pyridin-6-yl]phenyl}cyclopentanecarbonitrile], the inhibition at 1 µM stood at 49.2%.

`COCC(F)(F)c1nnc2ccc(-c3ccc(Oc4ccccc4)cc3)cn12` [BHN-136, 3-(1,1-difluoro-2-methoxyethyl)-6-(4-phenoxyphenyl)[1,2,4]triazolo[4,3-a]pyridine]: the inhibition at 1 µM is 45%.

For `COCC(F)(F)c1nnc2ccc(-c3ccc(Oc4ccc(Cl)cc4)cc3)cn12` [BHN-137, 6-[4-(4-chlorophenoxy)phenyl]-3-(1,1-difluoro-2-methoxyethyl)[1,2,4]triazolo[4,3-a]pyridine], the inhibition at 1 µM stood at 48.2%.

Staying with this assay, now noted: compound at 10 μM; HEK293 cells expressing hNav1.5; late INa generated with 10 μM Tefluthrin (or 50 nM ATX II); read-out: LateINa_10 uM (percent block of late INa).
Turning to `FC(F)(F)Oc1ccc(-c2ccc3nnc(C(F)(F)F)n3c2)c2cccnc12` [BHN-108, 8-(trifluoromethoxy)-5-[3-(trifluoromethyl)[1,2,4]triazolo[4,3-a]pyridin-6-yl]quinoline], the inhibition at 10 µM is 63.1%.
